Source: patent publication US6593306B1, “Methods for modulation and inhibition of telomerase” (Board of Regents, The University of Texas Systems, priority 1995, dated 2003)
Values joined by “and” are separate entries in the source; they are usually repeats but may differ in a detail not shown here. Identical values can stand only once.

Tests used:
Assay type in all cases: biochemical
[1] = molecular target: T1, human 293 cell telomerase (Homo sapiens, UniProt O14746); experiment: Modified telomerase assay (32P-dATP as radiolabeled substrate); settings: for Inhibition of 293 cell telomerase, modified assay: competing radioactive nucleotide 3.12 μM [α32P]dATP
T1 construct: with 20 μl of S100 enzyme extract; endogenous in cells; host or cells: 293 cells (transformed human embryonic kidney), S100 extract
T1 sequence (O14746 whole entry): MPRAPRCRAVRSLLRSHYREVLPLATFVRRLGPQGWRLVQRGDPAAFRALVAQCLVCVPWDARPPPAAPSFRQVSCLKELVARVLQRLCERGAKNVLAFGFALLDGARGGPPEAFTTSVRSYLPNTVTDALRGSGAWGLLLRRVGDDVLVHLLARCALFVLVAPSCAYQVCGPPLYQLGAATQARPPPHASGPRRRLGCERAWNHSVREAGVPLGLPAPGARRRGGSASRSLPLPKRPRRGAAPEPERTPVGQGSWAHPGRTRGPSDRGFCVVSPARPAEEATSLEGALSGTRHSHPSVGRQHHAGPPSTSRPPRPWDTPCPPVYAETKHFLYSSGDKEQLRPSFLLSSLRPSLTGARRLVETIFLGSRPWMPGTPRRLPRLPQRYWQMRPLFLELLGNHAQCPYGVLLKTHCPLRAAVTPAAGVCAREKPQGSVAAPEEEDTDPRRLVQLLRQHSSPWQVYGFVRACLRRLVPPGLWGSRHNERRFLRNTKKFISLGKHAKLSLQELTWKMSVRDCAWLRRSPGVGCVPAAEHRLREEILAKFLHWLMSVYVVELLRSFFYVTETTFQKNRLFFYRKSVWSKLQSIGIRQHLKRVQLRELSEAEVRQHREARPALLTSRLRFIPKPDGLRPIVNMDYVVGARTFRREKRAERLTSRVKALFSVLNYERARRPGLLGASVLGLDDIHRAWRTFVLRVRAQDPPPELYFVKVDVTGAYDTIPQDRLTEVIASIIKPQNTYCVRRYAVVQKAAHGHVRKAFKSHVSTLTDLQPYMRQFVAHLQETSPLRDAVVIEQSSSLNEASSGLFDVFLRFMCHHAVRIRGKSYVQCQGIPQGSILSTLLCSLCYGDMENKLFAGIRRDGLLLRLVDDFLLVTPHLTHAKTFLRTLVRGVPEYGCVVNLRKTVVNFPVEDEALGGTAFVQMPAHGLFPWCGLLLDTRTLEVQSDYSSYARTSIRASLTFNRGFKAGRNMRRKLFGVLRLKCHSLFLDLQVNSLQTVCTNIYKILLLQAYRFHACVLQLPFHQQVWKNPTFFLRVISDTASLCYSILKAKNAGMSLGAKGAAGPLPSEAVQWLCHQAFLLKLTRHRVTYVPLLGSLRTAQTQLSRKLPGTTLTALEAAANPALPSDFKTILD
T1 sequence (O60832 whole entry partner): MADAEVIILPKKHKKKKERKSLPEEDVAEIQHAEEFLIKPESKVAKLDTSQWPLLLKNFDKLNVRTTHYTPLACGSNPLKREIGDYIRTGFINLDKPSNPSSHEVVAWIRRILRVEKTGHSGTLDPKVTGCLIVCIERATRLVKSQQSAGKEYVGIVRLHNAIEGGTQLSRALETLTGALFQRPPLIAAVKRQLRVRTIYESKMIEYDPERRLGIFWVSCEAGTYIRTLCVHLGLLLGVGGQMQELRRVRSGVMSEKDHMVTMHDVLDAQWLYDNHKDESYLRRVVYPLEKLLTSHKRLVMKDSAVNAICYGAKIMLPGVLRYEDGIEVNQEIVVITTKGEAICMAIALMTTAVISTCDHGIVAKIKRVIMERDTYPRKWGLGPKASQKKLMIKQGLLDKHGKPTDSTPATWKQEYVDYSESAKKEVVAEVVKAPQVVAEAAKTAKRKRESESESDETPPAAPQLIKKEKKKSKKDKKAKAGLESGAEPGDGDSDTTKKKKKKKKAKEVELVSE
T1 sequence (Q9NPE3 whole entry partner): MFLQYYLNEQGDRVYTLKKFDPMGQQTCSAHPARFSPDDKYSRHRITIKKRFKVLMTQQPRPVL
T1 sequence (Q9NX24 whole entry partner): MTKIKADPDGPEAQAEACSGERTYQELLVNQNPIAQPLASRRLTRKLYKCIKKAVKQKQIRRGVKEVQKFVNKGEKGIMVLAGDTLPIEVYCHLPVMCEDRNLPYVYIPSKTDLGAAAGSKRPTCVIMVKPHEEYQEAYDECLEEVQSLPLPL
T1 sequence (Q9NY12 whole entry partner): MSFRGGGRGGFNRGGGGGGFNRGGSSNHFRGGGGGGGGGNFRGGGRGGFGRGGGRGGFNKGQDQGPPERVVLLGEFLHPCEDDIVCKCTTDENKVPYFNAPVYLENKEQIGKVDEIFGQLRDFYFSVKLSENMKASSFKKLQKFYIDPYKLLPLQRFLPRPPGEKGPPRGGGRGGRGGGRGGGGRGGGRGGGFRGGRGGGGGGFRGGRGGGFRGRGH
Experimental: (§1) Telomerase was prepared from transformed human embryonic kidney 293 cell line. Human embryonic kidney 293 cells were grown in Joklik's modified MEM niedium (Sigma, St Louis, Mo.) supplemented with 5% fetal bovine serum at 37° C. in a humidified atmosphere with 5% CO2. The cells were subcultured at 1-2×10^5 cells/ml twice a week. When the cells grew to approximately 1×10^6 cells/ml, the cells (˜2×10^9 cells) were centrifuged and transferred into polypropylene centrifuge (50 ml) tubes and kept on ice. The cells were then centrifuged in a (Beckman GS-6R) centrifuge at 1200 RPM for 10 minutes at 4° C., and resuspended in PBS. The washed cells were resuspended in 15 ml Hypobuffer Mix (10 mM HEPES, pH 8.0, 3 mM KCl, 1 mM MgCl2, 1 mM dithiothreitol, 1 μM leupeptin, 0.1 mM PMSF, 10 μM pepstatin, 0.83 μg/ml chymostatin, 0.83 μg/ml antipain, and 43.2 units/ml RNase Guard) and centrifuged. The cell pellets were resuspended in 0.75×volumes Hypobuffer [Hypobuffer Mix+40 units/ml RNase Guard (Pharmacia, N.J.) to allow the cells to swell. The cell suspensions were homogenized to allow the telomerase to “leak” into the cytosolic fraction. The lysate was then poured into new, autoclaved, 3 ml polyallomer ultracentrifuge tubes and centrifuged at 100,000×g for 1 hour at 4° C. A top lipid layer was carefully removed and discarded, and the supernatant was collected. 1/50 of the volume of 5 M NaCl was added to the clear supernatant fluid to achieve a final concentration of 0.1 M. Sterile glycerol was added until the final glycerol concentration was 20%. The enzyme solution was aliquoted into Eppendorf tubes and quickly frozen in liquid nitrogen and stored at −70° C.
In the conventional telomerase assay, the concentrations of both non-radiolabeled nucleotides, dATP and dTTP, are 1 mM, and the concentration of the radiolabeled [^32P]dGTP is 1.56 μM. Because of the high concentration of dATP and dTTP, the standard assay may not be suitable for determining the potential telomerase inhibition of any “Adenine or Thymine” analogs. […] All other chemicals and reaction conditions are identical to the conventional assay.

[2] = molecular target: T1, human 293 cell telomerase; experiment: Conventional telomerase assay (32P-dGTP as radiolabel substrate); settings: for Inhibition of 293 Telomerase, Conventional Assay *dGTP: up to 2 mM; for IC50: [α-32P]dGTP 1.56 μM, TTP and dATP 1 mM
Experimental: as §1
The assay is based on the ability of the telomerase enzyme in the S100 fractions to recognize an 18-base DNA primer with the DNA sequence (TTAGGG)3. DNA polymerization initiates from the 3′-OH group of the oligonucleotide. By reading from its complementary internal RNA template, telomerase adds a repeated set of 5′-TTAGGG-3′ to the original 18-base primer. Non-synchronous “starts” and “terminations” among the different enzyme complexes result in a degenerative set of different length DNA primers occurring in 6-base increments. Incorporation of [α-^32P]dGTP at the guanine positions of the 5′-TTAGGG-3′ sequence allows the newly synthesized DNA fragments to be visualized by autoradiography. The resulting image forms the characteristic “ladder” structure that is used to identify telomerase activity. The images are scanned using a phosphoimager or laser densitometer (Molecular Dynamics, Sunnyvale, Calif.). Comparisons of the total volumes under the corresponding peaks are used to quantitate the total amount of [α-^32P] incorporated in the primer extension reaction.
The telomerase assay was initiated by mixing 20 μl of 2×reaction mix (100 mM Tris-OAc, pH 8.5, 100 mM KOAc, 10 mM β-mercaptoethanol, 2 mM spermidine, 2 mM MgCl2, 2 mM dATP, 2 mM dTTP, 2 μM oligo primer, potential inhibitors of interest at the appropriate concentration, and 50 μCi [α^32-P]dGTP) with 20 μl of S100 enzyme extract. The reaction mixture was then incubated at 30° C. for 1 hour. The reaction was stopped by incubating sequentially with 50 μl of the stop solution (10 mM Tris pH 7.5, 20 mM EDTA, 0.1 mg/ml RNase A) and 50 μl of deproteinase solution (10 mM Tris pH 7.5, 0.5% SDS, 0.3 mg/ml Proteinase K). The mixture was extracted with 50% phenol/50% chloroform (v/v). The DNA was then precipitated by adding 2.5×volumes of cold EtOH and letting it stand overnight at −70° C. The DNAs were separated on an 8% polyacrylamide/7M urea denaturing gel at 1600 V for 1.5 hours. The gel was dried and exposed to Kodak XAR-5 film to gel in −70° C. Typical autoradiographic exposures required 3-14 days.

human cancer telomerase [3] = molecular target: T2, human cancer telomerase (Homo sapiens, UniProt O14746); experiment: Nucleoside triphosphate as telomerase substrate, dATP replaced in conventional reaction; settings: for incorporation into telomeric ladders, replacing dATP: conventional assay, 0.125-2 mM tested; for Substrate of 293 Telomerase: dATP analogs
T2 construct: endogenous in cells; host or cells: human cancer cells
T2 sequence (O14746 whole entry): as the sequence (O14746 whole entry) above
T2 sequence (O60832 whole entry partner): as the sequence (O60832 whole entry partner) above
T2 sequence (Q9NPE3 whole entry partner): as the sequence (Q9NPE3 whole entry partner) above
T2 sequence (Q9NX24 whole entry partner): as the sequence (Q9NX24 whole entry partner) above
T2 sequence (Q9NY12 whole entry partner): as the sequence (Q9NY12 whole entry partner) above
Source text: As described in Section 2, telomerase catalyzes the incorporation of dATP, dTTP and [α-^32P]dGTP into a (TTAGGG)3 primer. In order to determine whether dATP analog can be incorporated into telomere, native dATP in the standard telomerase reaction is replaced with various concentrations of dATP analogs. Following the reaction, telomeric products are isolated and analyzed as described in Section 2. Similarly, native dTTP in the standard telomerase reaction can be replaced by a structurally modified dTTP analog to test whether the dTTP analog can be used as a telomerase substrate.

human telomerase = molecular target: T3, human telomerase (Homo sapiens, UniProt O14746); experiment: Cell-free telomerase inhibition, conventional or modified assay not stated
T3 construct: telomerase in S100 extracts of transformed human fetal kidney tumor 293 cells (a processive telomerase); endogenous in cells; host or cells: human cells, (S100 extract)
T3 sequence (O14746 whole entry): as the sequence (O14746 whole entry) above
T3 sequence (O60832 whole entry partner): as the sequence (O60832 whole entry partner) above
T3 sequence (Q9NPE3 whole entry partner): as the sequence (Q9NPE3 whole entry partner) above
T3 sequence (Q9NX24 whole entry partner): as the sequence (Q9NX24 whole entry partner) above
T3 sequence (Q9NY12 whole entry partner): as the sequence (Q9NY12 whole entry partner) above
Experimental: Selected nucleoside triphosphates were tested in one or both of the “conventional” or “modified” telomerase assays described in Methods using the human processive and the CHO non-processive telomerases. Initially, three chain-terminators were selected: 2′,3′-dideoxythymidine triphosphate (ddTTP), 3′-fluoro-2′,3′-dideoxythymidine triphosphate (F-ddTTP), and 3′-azido-2′-, 3′-dideoxythymidine triphosphate (AZ-ddTTP) as prototype agents to investigate whether they could inhibit telomerase activity. The three compounds are dTTP analogs without a 3′-OH group for subsequent chain elongation. They may either incorporate into the telomere sequence and terminate further chain elongation or compete directly with dTTP for the substrate binding site in the telomerase reaction. In either case, telomerase activity is inhibited.

human cancer telomerase [4] = molecular target: T2, human cancer telomerase; experiment: Nucleoside triphosphate as telomerase substrate, dGTP replaced in modified reaction; settings: modified assay; 1 mM dTTP, 3.12 μM [α-32P]dATP
[5] = 0.125 mM, read-out: % of Control
[6] = 0.25 mM, read-out: % of Control

Row | SMILES | Inhibition of 293 cell telomerase, modified assay [1] | Inhibition of 293 Telomerase, Conventional Assay *dGTP [2] | incorporation into telomeric ladders, replacing dATP (human cancer telomerase [3]) | Substrate of 293 Telomerase (human cancer telomerase [3]) | remaining activity at 125 µM [1, 5] | remaining activity at 250 µM [1, 6] | remaining activity at 500 µM ([1]; 0.5 mM, read-out: % of Control) | remaining activity at 1000 µM ([1]; 1.0 mM, read-out: % of Control) | remaining activity at 2000 µM ([1]; 2 mM, read-out: % of Control) | remaining activity at 125 µM [2, 5] | remaining activity at 250 µM [2, 6] | remaining activity at 500 µM ([2]; 0.5 mM, read-out: % of Control) | remaining activity at 1000 µM ([2]; 1.0 mM, read-out: % of Control) | remaining activity at 2000 µM ([2]; 2.0 mM, read-out: % of Control) | incorporation into telomeric ladders, replacing dGTP (human cancer telomerase [4]) | IC50 [2] | further results
1 | Nc1ncnc2c1ncn2[C@H]1C[C@H](O)[C@@H](COP(=O)(O)OP(=O)(O)CP(=O)(O)O)O1 [NA004, 2′-Deoxyadenosine-5′-β,γ-Methylene Triphosphate] | concentration-dependent inhibition | No Inhibition (Up to 2 mM) | incorporated | Replace dATP Is a substrate No substrate inhibition |  |  |  |  |  |  |  |  |  |  |  |  | % of Control ([1]; 0.125 mM): 6%; % of Control ([1]; 0.25 mM): 1.7%; % of Control ([1]; 0.5 mM): 0%; % of Control ([1]; 1.0 mM): 0%; % of Control ([1]; 2 mM): 0%; % of Control ([2]; 0.125 mM): 70%; % of Control ([2]; 0.25 mM): 72%; % of Control ([2]; 0.5 mM): 88%; % of Control ([2]; 1.0 mM): 98%; % of Control ([2]; 2.0 mM): 99%
2 | Nc1ncnc2c1ncn2[C@H]1CC[C@@H](COP(=O)(O)OP(=O)(O)OP(=O)(O)O)O1 [NA007, 2′,3′-Dideoxyadenosine-5′-Triphosphate] |  | No Inhibition (up to 2 mM) | no apparent NA007 incorporation was detected | No product formed using (TTAGGG)^3 primer | 0% | 0% | 0% | 0% | 0% | 118% | 116% | 141% | 126% | 133% |  |  | inhibition of human telomerase activity (human telomerase; 1 mM): inhibited
3 | Nc1nc2c(ccn2[C@H]2C[C@H](O)[C@@H](COP(=O)(O)OP(=O)(O)OP(=O)(O)O)O2)c(=S)[nH]1 [Compound 8, 6-Thio-7-deaza-2′-deoxyguanosine Triphosphate] |  |  |  |  |  |  |  |  |  |  |  |  |  |  | incorporation |  | 
4 | Nc1nc2c(ncn2[C@H]2CC[C@@H](COP(=O)(O)OP(=O)(O)OP(=O)(O)O)O2)c(=O)[nH]1 [NA020, 2′,3′-Dideoxyguanosine-5′-Triphosphate] |  |  |  |  |  |  |  |  |  |  |  | 0% | 0% |  | no apparent NA020 incorporation was detected | < 125 µM | remaining activity at 12.5 µM ([2]; 0.0125 mM, read-out: % of Control): 0%; remaining activity at 25 µM ([2]; 0.025 mM, read-out: % of Control): 0%; remaining activity at 50 µM ([2]; 0.05 mM, read-out: % of Control): 0%; remaining activity at 100 µM ([2]; 0.1 mM, read-out: % of Control): 0%; remaining activity at 200 µM ([2]; 0.2 mM, read-out: % of Control): 0%; concentration at which telomerase activity is completely inhibited ([2]; lowest concentration tested): ≤ 12.5 µM
5 | Nc1ncnc2c1ncn2[C@H]1C[C@H](O)[C@@H](COP(O)(=S)OP(=O)(O)OP(=O)(O)O)O1 (stereo partly drawn) [NA006, 2′-Deoxyadenosine-5′—O—(1-Thio-Triphosphate)] | concentration-dependent inhibition | No Inhibition (up to 2 mM) | incorporated | Is a substrate No substrate inhibition | 0% | 0% | 0% | 0% | 0% | 120% | 103% | 103% | 100% | 113% |  |  | 
6 | Nc1ncnc2c1ccn2[C@H]1C[C@H](O)[C@@H](COP(=O)(O)OP(=O)(O)OP(=O)(O)O)O1 [NA023, 7-Deaza-2′-Deoxyadenosine-5′-Triphosphate] | concentration-dependent inhibition | concentration-dependent inhibition |  | Is a substrate Produces short telomere Substrate Inhibition |  |  |  |  |  |  |  |  |  |  |  | 59 µM and < 100 µM | remaining activity at 1 µM ([1]; 1.0 μM, read-out: % of Control): 69%; remaining activity at 2.5 µM ([1]; 2.5 μM, read-out: % of Control): 46%; remaining activity at 5 µM ([1]; 5.0 μM, read-out: % of Control): 57%; remaining activity at 7.5 µM ([1]; 7.5 μM, read-out: % of Control): 40%; remaining activity at 10 µM ([1]; 10 μM, read-out: % of Control): 23%; remaining activity at 25 µM ([1]; 25 μM, read-out: % of Control): 4%; remaining activity at 50 µM ([1]; 50 μM, read-out: % of Control): 0%; remaining activity at 75 µM ([1]; 75 μM, read-out: % of Control): 0%; remaining activity at 100 µM ([1]; 100 μM, read-out: % of Control): 0%; IC50 ([1]; [α-32P]dATP 3.12 μM, TTP and dGTP 1 mM): 8 µM; IC50 (human telomerase; Summary values, assay variant not stated, read-out: IC50): 78.5 µM; concentration above which no telomerase activity was detected (human cancer telomerase [3]; dATP replaced, 1 mM TTP, 1.56 μM [α-32P]dGTP): > 1.5 mM
